# Measured values as given in article PMC11249646, “Small-Molecule Disruptors of the Interaction between Calcium- and Integrin-Binding Protein 1 and Integrin αIIbβ3 as Novel Antiplatelet Agents” (ACS Pharmacology & Translational Science, 2024).
# Like-named read-outs stand apart in the source and are kept apart here.
# Tests used:
# Type in all cases: binding
# [1] = target: T1, CIB1 and αIIb interaction (GST-CIB1 : F-αIIb peptide) (Homo sapiens, UniProt Q99828); test: FP assay, 384-well format (screen); set-up: 384-well SCREEN Efficacy (%): concentration or dose not given beside the values; conditions: for 384-well SCREEN Efficacy (%) / 384-well SCREEN Confirm? / IC50: F-αIIb peptide; for 384-well SCREEN Confirm?: YES/NO; for IC50: read-out: 384-well SCREEN IC50
# T1 construct: made in house; host or cells: BL-21 plus RIL cells (E. coli)
# T1 sequence (Q99828 1-191): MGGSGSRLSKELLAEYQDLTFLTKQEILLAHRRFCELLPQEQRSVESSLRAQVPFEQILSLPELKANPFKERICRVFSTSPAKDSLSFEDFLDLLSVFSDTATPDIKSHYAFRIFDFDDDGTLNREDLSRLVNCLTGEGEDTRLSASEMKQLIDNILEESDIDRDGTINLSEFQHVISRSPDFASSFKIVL
# [2] = target: T2, GST-CIB1 : F-scrambled peptide (Homo sapiens, UniProt Q99828); test: FP scrambled-peptide counter screen, 384-well format; conditions: F-scrambled peptide; for IC50: read-out: 384-well COUNTERSCREEN IC50; for 384-well COUNTERSCREEN Confirm?: *: Curve in opposite direction
# T2 construct: made in house; host or cells: BL-21 plus RIL cells (E. coli)
# T2 sequence (Q99828 1-191): T1 sequence (Q99828 1-191)
# [3] = target: T3, CIB1 and αIIb interaction (CIB1-GST : F-αIIb peptide) (Homo sapiens, UniProt Q99828); test: FP assay, 1536-well qHTS format (primary and confirmatory screen); conditions: for Efficacy (%) / CONFIRMATORY SCREEN Efficacy (%): negative = inhibition; for CONFIRMATORY SCREEN Confirm?: YES/NO call
# T3 construct: made in house; host or cells: BL-21 plus RIL cells (E. coli)
# T3 sequence (Q99828 1-191): T1 sequence (Q99828 1-191)
# [4] = target: T2, GST-CIB1 : F-scrambled peptide; test: FP scrambled-peptide counter screen, 1536-well format; conditions: for COUNTERSCREEN Confirm?: YES/NO call
# [5] = confirmatory screen, qHTS curve class, negative sign = inhibitory curve
# [6] = qHTS FP screen hits, Table S2, read-out: IC50
# [7] = confirmatory screen, read-out: CONFIRMATORY SCREEN IC50
# [8] = qHTS FP screen hits, Table S2, one class per curve where COUNT > 1, negative sign = inhibitory curve
# [9] = scrambled-peptide counterscreen
# [10] = scrambled-peptide counterscreen, qHTS curve class
# [11] = qHTS primary screen hits, Table S2
# [12] = qHTS primary screen hits, Table S2, read-out: IC50
# [13] = scrambled-peptide counterscreen, read-out: COUNTERSCREEN IC50
# [14] = qHTS primary screen hits, Table S2, negative sign = inhibitory curve, several classes where COUNT > 1
SMILES,384-well SCREEN Efficacy (%) [1],384-well SCREEN Confirm? [1],IC50 [1],384-well COUNTERSCREEN Efficacy (%) [2],IC50 [2],"Efficacy (%) ([3]; qHTS FP screen hits, Table S2)","IC50 [3, 6]",CONFIRMATORY SCREEN Confirm? ([3]; confirmatory screen),"CONFIRMATORY SCREEN Curve Class [3, 5]",CONFIRMATORY SCREEN Efficacy (%) ([3]; confirmatory screen),"IC50 [3, 7]","Curve Class [3, 8]","COUNTERSCREEN Efficacy (%) [4, 9]","COUNTERSCREEN Confirm? [4, 9]","COUNTERSCREEN Curve Class [4, 10]","Efficacy (%) [3, 11]","IC50 [3, 12]",further results
Cl.O=C1c2c(O)ccc(O)c2C(=O)c2c(NCCNCCO)ccc(NCCNCCO)c21 [NCGC00015693-04],80%,YES,4.1 µM,75%,5.8 µM,-85%,25.2 µM,,,,,,,,,,,"Efficacy (%) (confirmatory screen) ([3]; confirmatory screen): -112%; Confirm? (confirmatory screen) ([3]; confirmatory screen, YES/NO): YES; Curve Class (confirmatory screen) [3, 5]: -1.1; IC50 ([3]; confirmatory screen, read-out: IC50 [μM] (confirmatory screen)): 20 µM; Efficacy (%) (counterscreen) ([4]; counterscreen): -125%; Curve Class (counterscreen) ([4]; counterscreen, qHTS curve class, negative sign = inhibitory curve): -1.1; IC50 ([4]; counterscreen, read-out: IC50 [μM] (counterscreen)): 20 µM"
Cc1cc(F)ccc1S(=O)(=O)Nc1cnccc1C(=O)Nc1nc(-c2ccccc2)cs1 [NCGC00345106-03],46%,YES,28.2 µM,38%,> 120 µM,-51%,50.1 µM,YES,-2.1,-123%,28.2 µM,-2.2,28%,YES,4,,,384-well COUNTERSCREEN Confirm? [2]: YES
O=C(CN(c1cccc(Br)c1)S(=O)(=O)c1ccccc1)NN=CC1=CC(=[N+]([O-])O)C=CC1=O.O=C(O)C(F)(F)F [NCGC00248455-01],40%,YES,11.2 µM,52%,15.8 µM,,,YES,-2.1,-91%,31.6 µM,,-13%,YES,4,-62%,17.8 µM,"Curve Class ([3]; qHTS primary screen hits, Table S2, negative sign = inhibitory curve): -2.2"
N#Cc1ccc(N2N=C3c4ccc(C(=O)O)cc4CC[C@@H]3[C@@H]2C2CCCC2)cc1Cl [NCGC00485023-01],-15%,,,40%,,-32%,,YES,-2.4,-30%,,-1.2,165%,YES,,,,
CCc1oc2ccccc2c1C(=O)c1cc(Br)c(O)c(Br)c1 [NCGC00013895-08],39%,YES,25.1 µM,60%,12.6 µM,,,YES,-1.2,-66%,22.4 µM,,52%,YES,,,,"384-well COUNTERSCREEN Confirm? [2]: YES; IC50 [4, 13]: 20 µM"
COc1ccccc1S(=O)(=O)Nc1cnccc1C(=O)Nc1nc(-c2ccccc2)cs1.O=C(O)C(F)(F)F [NCGC00344905-01],37%,YES,7.1 µM,44%,10 µM,-43%,,YES,-2.2,-79%,,-2.2,-15%,YES,4,,,
Nc1c(Cc2ccc(S(N)(=O)=O)cc2)c(-c2cccc(-c3ccccc3)c2)nn1-c1nc(C(=O)O)cs1.O=C(O)C(F)(F)F [NCGC00356752-02],49%,YES,14.1 µM,34%,1.6 µM,-54%,28.2 µM,YES,-2.2,-78%,39.8 µM,-2.2,0%,YES,4,,,Confirm and Selective? ([1]; selective toward αIIb: negative curve class and/or IC50 ratio of >3-fold and/or >2-fold efficacy vs scrambled peptide): Inconclusive; 384-well COUNTERSCREEN Confirm? [2]: Inconclusive
Oc1c(Cl)cc(Cl)c(Cl)c1Cc1c(O)c(Cl)cc(Cl)c1Cl [NCGC00091195-08],55%,,> 120 µM,205%,31.6 µM,,,YES,-1.4,-38%,7.1 µM,,106%,YES,,-59%,50.1 µM,"Curve Class [3, 14]: -2.2; IC50 [4, 13]: 89.1 µM"
Cc1ccc(S(=O)(=O)Nc2nn3c(=O)c4ccccc4nc3s2)cc1C.O=C(O)C(F)(F)F [NCGC00187578-01],27%,,> 120 µM,12%,> 120 µM,,,YES,-2.2,-46%,11.2 µM,,39%,YES,4,-22%,14.1 µM,"Curve Class [3, 14]: -1.4"
N[C@@H](Cc1ccc(Oc2cc(I)c(O)c(I)c2)c(I)c1)C(=O)O [NCGC00344545-01],46%,YES,10 µM,51%,3.1 µM,,,YES,-1.2,-60%,15.8 µM,,-19%,YES,4,-39%,39.8 µM,"Curve Class [3, 14]: -2.2"
COc1ccc(C(=O)Nc2nc(-c3ccccc3)cs2)c(NS(=O)(=O)c2ccc(C)cc2)c1.O=C(O)C(F)(F)F [NCGC00262390-01],24%,,> 120 µM,102%,31.6 µM,-22%,17.8 µM,YES,-1.2,-60%,11.2 µM,,92%,YES,,,,"IC50 [4, 13]: 70.8 µM"
